Reference: publication PMC11061835, “Elucidating the Mechanism of Metabolism of Cannabichromene by Human Cytochrome P450s” (Journal of Natural Products, 2024)
“And” between values parts separate entries of the source, which are not always exact repeats. Identical values can stand only once.

How the values were obtained:
CYP2J2 [1] = molecular target: T1, CYP2J2 (Homo sapiens, UniProt P51589); assay: CBC metabolism by CYP2J2; assay type: in vitro ADME
T1 construct: His-tag; made in house; host or cells: E. coli DH-5α with pTGro7 plasmid
T1 sequence (P51589 1-502): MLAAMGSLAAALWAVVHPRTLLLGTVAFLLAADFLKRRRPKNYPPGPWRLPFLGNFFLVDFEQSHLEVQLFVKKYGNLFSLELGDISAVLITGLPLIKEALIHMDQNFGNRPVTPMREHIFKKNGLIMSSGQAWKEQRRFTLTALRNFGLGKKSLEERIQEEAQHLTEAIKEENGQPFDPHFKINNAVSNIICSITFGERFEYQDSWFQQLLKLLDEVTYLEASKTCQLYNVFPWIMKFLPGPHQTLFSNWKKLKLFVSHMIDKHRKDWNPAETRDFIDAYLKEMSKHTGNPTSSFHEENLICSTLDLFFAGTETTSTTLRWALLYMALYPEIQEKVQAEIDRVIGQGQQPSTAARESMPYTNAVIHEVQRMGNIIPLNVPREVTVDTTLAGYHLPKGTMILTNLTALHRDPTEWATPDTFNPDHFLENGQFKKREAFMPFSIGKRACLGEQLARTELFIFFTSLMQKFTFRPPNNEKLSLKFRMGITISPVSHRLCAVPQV
Method: (§1) To study the kinetics of CBC metabolism, concentration dependent metabolism of CBC was carried out in the presence of various CYPs using the following procedure. CYP2J2, CYP2C8, CYP2D6, CYP2C9, and CYP3A4 (final concentration 0.5 μM) were initially dissolved in lipid containing POPC:POPS (8:2 v/v) followed by addition of CPR (final concentration 0.6 μM) in 0.1 M potassium phosphate buffer (pH 7.4). CBC (5–80 μM) was added and incubated at 37 °C for 10 min. The reaction was triggered by NADPH and extracted using the exact sample protocol as mentioned in the HLM section.
(§2) Samples were analyzed with the 5500 QTRAP LC/MS/MS system (Sciex, Framingham, MA) in the Metabolomics Lab of Roy J. Carver Biotechnology Center, University of Illinois at Urbana–Champaign. Software Analyst 1.7.1 was used for data acquisition and analysis. The 1200 series HPLC system (Agilent Technologies, Santa Clara, CA) includes a degasser, an autosampler, and a binary pump. […] Multiple reaction monitoring (MRM) was used for quantitation: CBC m/z 315.1 → m/z 135.0; 1-acetoxy-6′,7′-dihydroxy-CBC (JM-I-73) m/z 349.1→ m/z 193.0; 1″-hydroxy-CBC (JM-I-66) m/z 331.1→ m/z 275.1; 6′,7′-epoxy-CBC (JM-I-27) m/z 331.1→ m/z 193.0; 7′,10′-ene-6′-hydroxy-CBC (JM-I-30) m/z 331.1→ m/z 193.0; 8′-hydroxy-CBC (JM-I-32) […]→ m/z 77.0. Internal standard EET-EA-d11 was monitored at m/z 375.2→ m/z 357.1.

CYP2C9 = assay: CBC metabolism by CYP2C9; assay type: in vitro ADME, human
Method: as §1, §2

[2] = In vivo metabolism of CBC, mouse blood plasma (LC-MS/MS); design: species or system mice
Method: CBC was dissolved in ethanol, and an aliquot was then mixed with Tween-80. Ethanol was removed by evaporation. The mixture was then reconstituted with PBS to a 6% final concentration of Tween-80. C 57BL/6J female mice, age 8–10 weeks, were injected with 20 mg/kg CBC or vehicle intravenously (IV, n = 3) via the tail vein or intraperitoneally (IP, n = 3). Blood samples were collected terminally by cardiac puncture into heparin-coated syringes at 0.5 and 2 h after CBC treatment and transferred into tubes. The tubes were then centrifuged, and plasma samples were removed and stored at −80 °C.
200 μL of blood plasma from each sample was taken into a glass tube, and 500 μL of extraction solvent (hexane:ethyl acetate 80:20 v/v) was added. The remaining extraction steps are similar to those used for CBC metabolite extraction from CYPs as mentioned earlier.
Samples were analyzed with the 5500 QTRAP LC/MS/MS system (Sciex, Framingham, MA) in the Metabolomics Lab of Roy J. Carver Biotechnology Center, University of Illinois at Urbana–Champaign. Software Analyst 1.7.1 was used for data acquisition and analysis. The 1200 series HPLC system (Agilent Technologies, Santa Clara, CA) includes a degasser, an autosampler, and a binary pump. The LC separation was performed on a Phenomenex Gemini C6-phenyl column (2 × 100 mm, 3 μm) with mobile phase A (0.1% formic acid in water) and mobile phase B (0.1% formic acid in acetonitrile). The flow rate was 0.2 mL/min. The linear gradient was as follows: 0–2 min, 95% A; 10 min, 50% A; 20–25 min, 0% A; 25.1–31 min, 95% A. The autosampler was set at 10 °C. The injection volume was 5 μL. Mass spectra were acquired under positive electrospray ionization (ESI) with the ion spray voltage of +5000 V. The source temperature was 400 °C. The curtain gas, ion source gas 1, and ion source gas 2 were 325, 65, and 55 psi, respectively. Multiple reaction monitoring (MRM) was used for quantitation: CBC m/z 315.1 → m/z 135.0; 1-acetoxy-6′,7′-dihydroxy-CBC (JM-I-73) m/z 349.1→ m/z 193.0; 1″-hydroxy-CBC (JM-I-66) m/z 331.1→ m/z 275.1; 6′,7′-epoxy-CBC (JM-I-27) m/z 331.1→ m/z 193.0; 7′,10′-ene-6′-hydroxy-CBC (JM-I-30) m/z 331.1→ m/z 193.0; 8′-hydroxy-CBC (JM-I-32) […]→ m/z 77.0. Internal standard EET-EA-d11 was monitored at m/z 375.2→ m/z 357.1.

TRPV1 = test system: TRPV1; design: method as in PMID 30697147; details: read-out: agonism toward TRPV1; cited from earlier work
[3] = molecular target: cannabinoid receptor 2 (CB2); design: method as in PMID 31368508; details: agonist; cited from earlier work
CYP2J2 [4] = molecular target: T1, CYP2J2; assay: Spectroscopic titration (Soret shift), CYP2J2; assay type: binding; details: CYP2J2, absence of CPR
Method: (§3) CBC binding to various CYPs was determined by analyzing the Soret shift from ∼417 to ∼390 nm. CBC (stock 10 mM) was dissolved in ethanol and titrated with different CYPs at room temperature. Buffer-exchanged CYP2J2, CYP2D6, CYP3A4, and CYP2C8 (concentrations of proteins were kept between 4 and 5 μM) were dissolved in 0.1 M phosphate buffer (pH = 7.4), and initial spectra were recorded from 200 to 800 nm with a prominent peak at 417 nm. The concentration of CBC was varied from 0 to 100 μM keeping the final concentration of substrate in EtOH not more than 1% in cuvette. 0–4 μL of stock CBC was added using a Hamilton syringe in both the sample and blank cuvettes. The mixture was incubated for 5 min at 37 °C, and absorbance spectra were recorded using a Cary Bio 300 UV–vis spectrophotometer (Agilent Technologies, Santa Clara, CA). To eliminate the background absorbance, we derived the final spectra by […].

CYP2D6 = CYP2D6 (Homo sapiens, UniProt P10635); assay: Spectroscopic titration (Soret shift), CYP2D6; assay type: binding; design: His-tag; made in house; host or cells: E. coli DH-5α with pTGro7 plasmid; details: CYP2D6, absence of CPR
Sequence of CYP2D6 (P10635 whole entry): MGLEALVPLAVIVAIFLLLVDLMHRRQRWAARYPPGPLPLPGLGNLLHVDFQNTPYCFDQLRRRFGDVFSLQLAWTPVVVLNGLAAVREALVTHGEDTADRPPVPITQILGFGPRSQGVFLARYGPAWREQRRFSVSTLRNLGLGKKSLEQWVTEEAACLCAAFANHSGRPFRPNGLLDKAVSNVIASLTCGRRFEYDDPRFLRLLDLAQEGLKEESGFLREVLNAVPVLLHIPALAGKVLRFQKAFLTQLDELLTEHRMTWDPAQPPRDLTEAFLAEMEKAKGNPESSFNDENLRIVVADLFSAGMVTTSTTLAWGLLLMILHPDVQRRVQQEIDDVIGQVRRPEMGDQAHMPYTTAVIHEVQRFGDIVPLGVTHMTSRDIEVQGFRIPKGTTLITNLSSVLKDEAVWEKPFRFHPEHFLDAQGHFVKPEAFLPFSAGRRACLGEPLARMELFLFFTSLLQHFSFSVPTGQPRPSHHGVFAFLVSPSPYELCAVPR
Method: as §3

SMILES | ratio of 8′-hydroxy-CBC to 6′,7′-epoxy-CBC formed (CYP2J2 [1]; CYP2J2, from Vmax) | production of 8′-hydroxy-CBC with CYP2J2 relative to CYP2C8 (CYP2J2 [1]; CYP2J2 vs CYP2C8) [times] | extent of 8′-hydroxy-CBC formation relative to 6′,7′-epoxy-CBC (CYP2C9) | detection as product of CBC metabolism in mouse plasma ([2]; mice, CBC 20 mg/kg IV or IP, plasma at 0.5 and 2 h) | detection in blood plasma after 2 h of CBC administration ([2]; mice, both IP and IV, 2 h) | plasma concentration relative to the 6′,7′-epoxy compound ([2]; mouse plasma 0.5 h after CBC 20 mg/kg, depending on mode of administration (IP or IV)) | EC50 (TRPV1) [µM] | Ki [3] [µM] | ΔAmax (spin state change due to heme perturbation) (CYP2J2 [4]) | Kd (CYP2J2 [4]; read-out: Kd(app)) | ΔAmax (spin state change due to heme perturbation) (CYP2D6) | Kd (CYP2D6; read-out: Kd(app))
CCCCCc1cc(O)c2c(c1)OC(C)(CC/C=C(\C)CO)C=C2 (stereo not drawn) [8′-hydroxy-CBC] | approximately 50 | ~10 | approximately half | detected | not detected | 4–8 times |  |  |  |  |  | 
CCCCCc1cc(O)c2c(c1)OC(C)(CCC=C(C)C)C=C2 (stereo not drawn) [CBC, Cannabichromene] |  |  |  |  |  |  | < 10 | ~0.1 | 0.04 ± 0.00 and ~0.04 | 3.06 µM and ~3 µM | 0.09 ± 0.01 and ~0.09 | 11.4 µM and ~11 µM
